From paper PMC8696185, “Purification and Characterization of Plantaricin YKX and Assessment of Its Inhibitory Activity Against Alicyclobacillus spp” (Frontiers in Microbiology, 2021)
Bridges are numbered along the chain shown (N, C = ends). Where no end group is shown, it is not given here. [ ]: non-standard residue; d: D form. Dhb = C/C=C(\N)C(=O)O; Dha = C=C(N)C(=O)O

Tests used:
[1] = system: E. coli CICC10302 as indicator stain; assay: Effect of enzymes on antibacterial activity (stability); format: in vitro ADME, Escherichia coli; parameters: key to Antibacterial ability after Lipase, α-AMYLASE / Antibacterial ability after Trypsin, pepsin: Antimicrobial activity +: there is a clear inhibition zone.; Antimicrobial activity –: there is no inhibition zone; key to Antibacterial ability after Proteinase K, papain, α-chymotrypsin: −: Antimicrobial activity –: there is no inhibition zone; details: enzyme 1.0 mg/mL, 37°C for 30 min, agar well diffusion
Description: (§1) The effect of temperature (60, 80, or 100°C) on the activity of purified plantaricin YKX was analyzed within a certain time (10, 20, or 30 min) ([An et al., 2017]). The long-term stability was investigated at 37°C for […] and at 4°C for 3 months ([Yue et al., 2013]). The impact of pH on plantaricin YKX was analyzed by adjusting pH to 2–10 with 1 M HCl and 1 M NaOH solutions and determining residual activities after maintaining at 37°C for 2 h ([Yue et al., 2013]). The effect of enzymes on the antibacterial activity of plantaricin YKX was determined following incubation with enzymes lipase [pH 7.0, 10 mM phosphate-buffered saline (PBS)], α-amylase (pH 7.0, 10 mM PBS), trypsin (pH 7.5, 10 mM PBS), proteinase K (pH 7.5, 50 mM Tris-HCl), papain (pH 7.5, 10 mM PBS), and pepsin (pH 3.0, 0.1 M HCl) at 37°C for 30 min with their optimal pH and a final concentration of 1.0 mg/mL. The enzymes were inactivated by heating at 100°C for 5 min, and the pH was then adjusted to pH 6.0 ([Yue et al., 2013]). Plantaricin YKX without any treatments was employed as a control. Agar well diffusion assay was utilized to determine the antibacterial activity ([Pei et al., 2020]).

[2] = system: A. acidoterrestris DSM3922 as indicator stain; assay: Heat, storage and pH stability, residual antibacterial activity; format: physicochemical, Alicyclobacillus acidoterrestris; parameters: key to Antibacterial ability after pH 2–7 / Antibacterial ability after 60, 80, and 100°C / Antibacterial ability after 37°C for 14 d / Antibacterial ability after 2 months at 4°C: Antimicrobial activity +: there is a clear inhibition zone.; Antimicrobial activity –: there is no inhibition zone; key to Antibacterial ability after pH 9–10: −: Antimicrobial activity –: there is no inhibition zone; details: agar well diffusion
Description: as §1

[3] = system: Clostridium butyricum CICC 10350; details: CICC 10350, 24 h
[4] = system: A. acidoterrestris DSM3922 cells; assay: Flow cytometry, propidium iodide uptake (membrane integrity); format: cell-based, Alicyclobacillus acidoterrestris; details: 2 × MIC, incubation for 30 min, 45°C, propidium iodide 10 μg/mL
Description: Log phase A. acidoterrestris DSM3922 cells were incubated with plantaricin YKX at 0.5×, 1×, or 2× MIC (control: cells treated with PBS) at 45°C for 15 min. Next, they were centrifuged, rinsed, and treated with propidium iodide (10 μg/mL) for 15 min at 45°C ([Gut et al., 2011]). After removing the unbound stain, the fluorescence intensities were analyzed by an AccuriC6 flow cytometer (BD Biosciences, MI, United States). Forty thousand events were acquired per sample and detected at excitation (488 nm) and emission wavelengths (525 nm).

[5] = system: Aspergillus niger CICC 2124; assay: Minimal inhibitory concentration (MIC); format: cell-based; details: twofold serial dilution, 96-well plate, 24 h at 30°C, OD600; highest conc. not given in μg/mL (stock 1,024 IU/mL)
Description: (§2) The minimal inhibitory concentration (MIC) of plantaricin YKX toward indicator strains was measured according to the [Clinical and Laboratory Standards Institute (2012)]. Indicator strains in the mid-logarithmic growth phase were adjusted to the OD600 of 0.5 and diluted 100-fold with appropriate media. First, the plantaricin YKX solution (1,024 IU/mL) was twofold serially diluted with distilled water. Next, 100 μL each indicator strain suspension and aliquots of plantaricin YKX solution were incubated [1:1 (v/v) ratio] in a 96-well plate for 24 h at 45°C with Alicyclobacillus spp. as indicator strain and at 30°C for other indicator strains listed in Table 1. The efficacy of nisin (> 90% pure, J & K Chemical Technology) was also determined. As a control, distilled water was added to the indicator strains suspensions. Following incubation, the MICs were determined by measuring the OD600 using a microplate reader (SpectraMax 190, Molecular Devices, CA, United States).

[6] = system: Saccharomyces cerevisiae CICC 1002; assay: Minimal inhibitory concentration (MIC); format: cell-based; details: twofold serial dilution, 96-well plate, 24 h at 30°C, OD600; highest conc. not given in μg/mL (stock 1,024 IU/mL)
Description: as §2

[7] = system: Pseudomonas aeruginosa CICC 21636; assay: Minimal inhibitory concentration (MIC); format: cell-based; details: twofold serial dilution, 96-well plate, 24 h at 30°C, OD600; highest conc. not given in μg/mL (stock 1,024 IU/mL)
Description: as §2

[8] = system: Candida albicans CICC 1965; assay: Minimal inhibitory concentration (MIC); format: cell-based; details: twofold serial dilution, 96-well plate, 24 h at 30°C, OD600; highest conc. not given in μg/mL (stock 1,024 IU/mL)
Description: as §2

[9] = system: Enterobacter cloacae CICC 21539; assay: Minimal inhibitory concentration (MIC); format: cell-based; details: twofold serial dilution, 96-well plate, 24 h at 30°C, OD600; highest conc. not given in μg/mL (stock 1,024 IU/mL)
Description: as §2

[10] = system: Salmonella paratyphi β CICC 10437; assay: Minimal inhibitory concentration (MIC); format: cell-based; details: twofold serial dilution, 96-well plate, 24 h at 30°C, OD600; highest conc. not given in μg/mL (stock 1,024 IU/mL)
Description: as §2

[11] = Heat, storage and pH stability (indicator not given); format: physicochemical
Description: as §1

[12] = system: A. acidoterrestris ATCC 3922; assay: Kill kinetics (time-killing curves); format: cell-based, Alicyclobacillus acidoterrestris; details: for Time within which all cells were inactivated: at the MICs (1 × MIC)
Text: FIGURE 3 Antibacterial activity of plantaricin YKX against A. acidoterrestris.

[13] = system: A. acidoterrestris DSM3922 endospores; assay: Endospore germination, microscopic counting; format: cell-based, Alicyclobacillus acidoterrestris; details: 2 h post-germination treatment, untreated 43.6%
[14] = system: A. acidoterrestris DSM3922 as indicator stain; assay: Effect of enzymes on antibacterial activity (stability); format: in vitro ADME, Alicyclobacillus acidoterrestris; parameters: key to Antibacterial ability after Lipase, α-AMYLASE / Antibacterial ability after Trypsin, pepsin: Antimicrobial activity +: there is a clear inhibition zone.; Antimicrobial activity –: there is no inhibition zone; key to Antibacterial ability after Proteinase K, papain, α-chymotrypsin: −: Antimicrobial activity –: there is no inhibition zone; details: enzyme 1.0 mg/mL, 37°C for 30 min, agar well diffusion
Description: as §1

[15] = system: A. acidoterrestris DSM3922; assay: Guaiacol production, HPLC; format: cell-based, Alicyclobacillus acidoterrestris; details: AAM broth, 45°C, HPLC 275 nm, control 20.6 μg/L
Description: A. acidoterrestris DSM3922 was inoculated in AAM broth containing plantaricin YKX at 0.5 ×, 0.7 × or 0.9 × MIC (control without plantaricin YKX) and cultured at 45°C. Samples were tested for OD600 after 24 h. After the samples were centrifuged at 8,000 g at 4°C and passed through 0.22 μm filter membrane, the guaiacol content was determined with an analytical HPLC dual pump Shimadzu LC-20 AB system equipped with UltimateXB-C18 column (4.6 × 250 mm, particle size 5 μm, Kyoto, Japan) ([Lin et al., 2006]). The mobile phase was 30% (v/v) acetonitrile in 0.1% (v/v) formic acid. The column temperature was maintained at 40°C. The mobile phase flow rate was set at 1 mL/min. The detection wavelength was 275 nm.

[16] = system: E. coli CICC10302 as indicator stain; assay: Heat, storage and pH stability, residual antibacterial activity; format: physicochemical, Escherichia coli; parameters: key to Antibacterial ability after pH 2–7 / Antibacterial ability after 60, 80, and 100°C / Antibacterial ability after 37°C for 14 d / Antibacterial ability after 2 months at 4°C: Antimicrobial activity +: there is a clear inhibition zone.; Antimicrobial activity –: there is no inhibition zone; key to Antibacterial ability after pH 9–10: −: Antimicrobial activity –: there is no inhibition zone; details: agar well diffusion
Description: as §1

[17] = system: luxS gene of A. acidoterrestris; assay: RT-qPCR, transcription of luxS; format: cell-based, Alicyclobacillus acidoterrestris; details: co-cultured at 0.5 × MIC, 0.7 × MIC, and 0.9 × MIC, overnight incubation
Description: To verify the effect of plantaricin YKX on the QS system, Real-Time Quantitative PCR (RT-qPCR) was used to detect the transcription level changes of the gene (luxS) encoding a QS signal (Al-2) synthesis enzyme (LuxS) in A. acidoterrestris. The mid-logarithmic phase cells of A. acidoterrestris were treated with plantaricin YKX at 0.5 ×, 0.7 ×, or 0.9 × MIC. After overnight incubation, RNA was extracted according to the Trizol method.
The reverse transcription reaction system (10 μL) contained: Total RNA 2 μL; dNTP 0.5 μL; Random primers 0.5 μL; and distilled water without RNAase 4 μL. All samples were maintained at 70°C for 5 min and then kept immediately in an ice bath. 5X reverse transcription buffer 2 μL, RNAase inhibitor 0.5 μL, and MMLV reverse transcription enzyme 0.5 μL were added immediately. Thus, the reverse transcription conditions were: 30°C for 10 min, 42°C for 1 h, 70°C for 15 min, and 4°C forever. After the reverse transcription reaction, the DNA templates were diluted 5 times and stored at −20°C until used.
PCR reaction included: upstream primer (10 μM) 0.2 μL, downstream primer (10 μM) 0.2 μL, 2 × Ultra SYBR Mixture 5 μL, ddH2O 3.6 μL, DNA templates 1 μL. The PCR reaction parameters were: 95°C for 10 min, 95°C for 15 s, 60°C for 1 min, 40 cycles. Primers (5′-[…]-3′; 5′-[…]-3′) were designed according to the gene sequence of luxS by the Primer 5.0 software.

[18] = system: Alicyclobacillus spp.; details: literature value; ref Yamazaki et al., 2000; cited from earlier work
Description: On the other hand, the MICs of plantaricin YKX and nisin inactivated all cells within 180 min.

[19] = optimal pH (proteinase K pH 7.5 Tris-HCl, papain pH 7.5 PBS)
[20] = pH 7.0, 10 mM PBS, enzyme inactivated 100°C 5 min, pH adjusted to 6.0
[21] = trypsin pH 7.5 10 mM PBS, pepsin pH 3.0 0.1 M HCl
[22] = pH adjusted with 1 M HCl / 1 M NaOH, 37°C for 2 h

## KYGNGLSRIFSALK [plantaricin YKX]
[1]; [19]
  Antibacterial ability after Proteinase K, papain, α-chymotrypsin: –
[1]; [20]
  Antibacterial ability after Lipase, α-AMYLASE: +
[1]; [21]
  Antibacterial ability after Trypsin, pepsin: +
[2]; heated for 10, 20, or 30 min
  Antibacterial ability after 60, 80, and 100°C: +
[2]; long-term storage
  Antibacterial ability after 2 months at 4°C: +
  Antibacterial ability after 37°C for 14 d: +
[2]; [22]
  Antibacterial ability after pH 2–7: +
  Antibacterial ability after pH 9–10: –
[3]
  MICs: 32 µg/mL
[4]
  Proportion of PI-stained cells: 91.6%
[5]
  MICs: > highest conc. tested
[6]
  MICs: > highest conc. tested
[7]
  MICs: > highest conc. tested
[8]
  MICs: > highest conc. tested
[9]
  MICs: > highest conc. tested
[10]
  MICs: > highest conc. tested
[11]; 3 months at 4°C, agar well diffusion
  Antibacterial activity after storage: did not alter its antibacterial activity
[11]; 37°C for 2 h at adjusted pH, residual activity by agar well diffusion
  pH at which the activity was lost: 9.0
[11]; 37°C for up to 14 days, agar well diffusion
  Antibacterial activity after storage: did not alter its antibacterial activity
[11]; as stated in the abstract
  pH range in which active (abstract): 3–8
[11]; heating at 60, 80, or 100°C (10, 20, or 30 min), agar well diffusion
  Heat stability, activity after heating: retaining activity
[12]; 2 MIC
  Time within which the number of cells was substantially decreased: ≤ 30 min
[12]
  Time within which all cells were inactivated: ≤ 180 min
[13]; 0.5 × MIC
  Germination rate of spores: 55.4%
[13]; 0.7 × MIC
  Germination rate of spores: 70.5%
[13]; 0.9 × MIC
  Germination rate of spores: 81.7%
[14]; [19]
  Antibacterial ability after Proteinase K, papain, α-chymotrypsin: –
[14]; [20]
  Antibacterial ability after Lipase, α-AMYLASE: +
[14]; [21]
  Antibacterial ability after Trypsin, pepsin: +
[15]; 0.5 × MIC
  Production of guaiacol: 16.8 µg/L
[15]; 0.7 × MIC
  Production of guaiacol: 10.1 µg/L
[15]; 0.9 × MIC
  Production of guaiacol: 8.9 µg/L
[16]; heated for 10, 20, or 30 min
  Antibacterial ability after 60, 80, and 100°C: +
[16]; long-term storage
  Antibacterial ability after 2 months at 4°C: +
  Antibacterial ability after 37°C for 14 d: +
[16]; [22]
  Antibacterial ability after pH 2–7: +
  Antibacterial ability after pH 9–10: –
[17]
  Expression of the luxS gene: increased significantly

## nisin: typical class I (lanthionine-based) bacteriocin, > 90% pure, J & K Chemical Technology (I[Dhb]SI[Dha]LCTPGCKTGALMGCNMKTATCHCSIHV[Dha]K; bridge 23-26, 13-19, 8-11, 25-28, 3-7; not fully specified (residues 3, 8, 13, 23, 25, bridges); UniProt P13068 24-57, looked up) [reference compound]
[12]
  Time within which all cells were inactivated: ≤ 180 min
[18]
  MIC: 16 to 32 µg/mL
[17]
  Expression of the luxS gene: did not show a similar function
